In article PMC11267282, “Ultrashort‐Peptide‐Responsive Gene Switches for Regulation of Therapeutic Protein Expression in Mammalian Cells” (Advanced Science, 2024):
Entries after “also recorded” stand apart in the source; their conditions may differ. Where a SMILES comes first, the peptide text is derived from it.

Tests used:
[1] = test system: CD4 / CD8 T cells of immunized mice; test: T-cell response, intracellular cytokine staining; format: in vivo, mouse; settings: FACS intracellular cytokine staining, spleen and draining lymph nodes, n = 3
Protocol: Mice were immunized at 2‐week intervals.
Isolated lymphocytes from spleens and lymph nodes were placed in a U‐bottom 96‐well plate and resuspended in 100 µl complete RPMI‐1640 medium, which contains FBS (10% v/v), HEPES (pH 7.2∼7.5, 1% v/v, Gibco), penicillin/streptomycin (1% v/v, Gibco), sodium pyruvate (1% v/v, Gibco) and 2‐mercaptoethanol (0.1% v/v, Gibco). Cells were stimulated with 1 µM cognate peptides or with Cell Stimulation Cocktail (a cocktail of phorbol 12‐myristate 13‐acetate (PMA) and ionomycin, Invitrogen) as positive controls at 37 °C for 4 h, in the presence of 10 µM brefeldin A (MedChemExpress) to inhibit cytokine secretion. Next, the cells were washed with 150 µl FACS buffer, and centrifuged with 1,500 g for 2 min. The supernatant was discarded and the cells were blocked with anti‐CD16/32 antibody (1:100, 93, 101302, BioLegend) in 20 µl/well FACS buffer at 4 °C for 15 min. Then 20 µl/well antibody cocktail containing anti‐CD3ε (1:500, 17A2, 100306, BioLegend), anti‐CD4 (1:500, RM4‐5, 100526, BioLegend), anti‐CD8β (1:500, YTS256.7.7, 126606, BioLegend), and anti‐CD45 (1:500, S18009F, 157211, BioLegend) was added to the cell mixture for 20 min incubation at 4 °C. […] Gate margins were determined on the basis of isotype controls and fluorescence‐minus‐one controls.

C57BL/6 mice = test: Antibody analysis for peptide immunogenicity; settings: s.c., three doses of 5 mg kg−1 at two-week intervals, with Freund's adjuvant, OD450, n = 3
Protocol: Eight‐week‐old wild‐type male mice were immunized for peptide immunogenicity assessments. Briefly, peptide solution was premixed 1:1 with Freund's adjuvant in a total volume of 400 µl by thorough vigorous shaking. Then peptide/adjuvant mixes were injected subcutaneously in 30 min at a dose of 5 mg kg^−1. Mice were immunized at 2‐week intervals. Negative controls (mock‐immunized) were also included in the study. One week after the third dose of immunization, blood was sampled for antibody analysis.
For antibody analysis, the peptides were coated on the EIA/RIA plate (cat. no. 3590, Corning Inc. Life Sciences) in carbonate coating buffer (cat. no. CB01100, ThermoFisher) at 4 °C overnight. The next day the plate was blocked with 20% nonfat milk (cat. no. A0830,1000, AppliChem Panreac) for 24 h at 4 °C, and incubated with antibodies at the indicated dilution or at 37 °C for 1 h. Next, horseradish peroxidase‐linked anti‐mouse IgG (cat. no. LNA931V, GE Healthcare, USA) was added to the plate at a dilution of 1:1000 for 1 h at 37 °C. Between each step, the plate was washed with PBS at least three times. Then, 100 µl ultra TMB substrate solution (cat. no. 34028, ThermoFisher) was added to the plate at room temperature for 15 min, followed by the addition of 50 µl of stop solution (2 M H2SO4). The OD450 was measured by a plate reader (Tecan Spark, Tecan Group Ltd., Switzerland). Mouse anti‐HA antibody (cat. no. 901523, BioLegend, USA, 1:1000 dilution) was used as a positive control.

[2] = test system: T1D mice with HEK-XIP implants; test: Serum inflammatory cytokines (ELISA); format: in vivo, mouse; settings: four weeks after implantation, n = 5
Protocol: The concentrations of interferon gamma (IFN‐γ), interleukin‐6 (IL‐6), and tumor necrosis factor alpha (TNF‐α) in mouse serum were assessed by the use of specific enzyme‐linked immunosorbent assay (ELISA) kits. IFN‐γ levels were analyzed using the IFN gamma mouse ELISA kit (cat. no. ab282874, Abcam), IL‐6 levels were determined with the IL‐6 mouse ELISA kit (cat. no. ab100712, Abcam), and TNF‐α levels were quantified utilizing the TNF alpha mouse ELISA kit (cat. no. BMS607HS, ThermoFisher). Freund's Complete Adjuvant (cat. no.: 344289, Sigma‐Aldrich) and lipopolysaccharides (cat. no.: L2630‐10MG, Sigma‐Aldrich) were utilized to induce cytokine production as positive controls. Blood samples were collected from mice treated with adjuvant and LPS 24 hours post‐treatment. The quantification of cytokines from these groups was conducted using the same ELISA kit.

HEK-293T cells [3] = test: Cell growth kinetics of HEK-293 cells; format: cell-based, human; settings: non-transformed HEK-293T, 10-250 µM, 48 h, n = 4
Protocol: (§1) HEK‐293T cells were seeded in a 10 cm diameter dish at a density of 2.5 × 10^5 cells/ml. After 24 h of culture, the cells were transfected with 35 µg of pJH3 (PhCMV‐SEAP‐pA) overnight, then resuspended and evenly distributed into two 24‐well plates. The treatment groups were treated with XIP at the indicated concentration. Samples were collected at successive time points for two days to quantify viable cells and SEAP production.

HEK-293T cells [4] = test: Constitutive recombinant SEAP production (pJH3); format: cell-based, human; settings: pJH3-transfected, 10-250 µM, 48 h, n = 4
Protocol: as §1
SEAP reporter levels in cell culture supernatants were quantified using a colorimetric assay. In brief, 20 µl of cell culture supernatant was mixed with 80 µl of PBS buffer (cat. no. 14190144, ThermoFisher) and heat‐inactivated at 65 °C for 30 min. Then 80 µl of 2x SEAP assay buffer (20 mM homoarginine, 1 mM MgCl2, 21% diethanolamine, pH 9.8) was mixed with 20 µl of substrate solution, and 100 µl of the buffer‐substrate mixture was added to 100 µl of the diluted heat‐inactivated sample. Absorbance at 405 nm was recorded using a plate reader (Tecan Spark, Tecan Group Ltd., Switzerland) for 30 min at 37 °C to determine the SEAP levels.

[5] = test system: engineered mammalian cells; test: Resazurin-based cell viability assay
Protocol: Cells were incubated with resazurin (cat. no. R7017, Sigma‐Aldrich, USA) at a concentration of 50 µg ml^−1 for 2 h. Then fluorescence was assayed with a plate reader (Tecan Spark, Tecan Group Ltd., Switzerland) at excitation and emission wavelengths of 540 and 590 nm, respectively. The fluorescence intensity of non‐induced cells was set to 100%.

[6] = Membrane penetration inferred from intracellular gene switch activation; format: in vitro ADME; settings: HEK-293T with intracellular ComR switch; inferred from SEAP induction
Protocol: Human embryonic kidney cells (HEK‐293T, ATCC: CRL‐11268), human telomerase‐immortalized mesenchymal stem cells (hMSC‐TERT),^[ [56] ^] human fibrosarcoma cells (HT‐1080, ATCC: CCL‐121), human cervical adenocarcinoma cells (HeLa, ATCC: CCL‐2), Chinese hamster ovary cells (CHO‐K1, ATCC: CCL‐61), baby hamster kidney cells (BHK‐21, ATCC: CCL‐10), and human liver cancer cells (Hep G2, ATCC: CRL‐11997) were cultured in Dulbecco's modified Eagle's medium (DMEM, cat. no. 52100–39, Thermo Fisher Scientific) containing 10% fetal bovine serum (FBS, cat. no. F7524, lot no. 022M3395, Sigma‐Aldrich) and 1% (v/v) streptomycin/penicillin (cat. no. L0022, Biowest). All mammalian cells were grown at 37 °C in a humidified atmosphere containing 5% CO2. For all transient transfections, 15 000 cells were seeded per well of a 96‐well plate (cat. no. 3599, Corning Inc. Life Sciences) overnight. Cells were transfected by mixing 100 ng of DNA and polyethyleneimine (PEI, 24765‐2, Polysciences) in a ratio of 1:4. […] The cell density was calculated using a cell counter (CellDrop BF Brightfield Cell Counter, DeNovix Inc.)
SEAP reporter levels in cell culture supernatants were quantified using a colorimetric assay. […] Absorbance at 405 nm was recorded using a plate reader (Tecan Spark, Tecan Group Ltd., Switzerland) for 30 min at 37 °C to determine the SEAP levels.

## CC[C@H](C)[C@H](NC(=O)[C@H](CCSC)NC(=O)[C@H](Cc1ccccc1)NC(=O)[C@H](Cc1ccccc1)NC(=O)[C@@H]1CCCN1C(=O)[C@@H](N)C(C)C)C(=O)N[C@@H](Cc1ccc(O)cc1)C(=O)N[C@@H](Cc1ccc(O)cc1)C(=O)O [XIP, sigX/comX-inducing peptide] (H-VPFFMIYY-OH)
[1]
  Peptide-specific T-cell response: no peptide‐specific T‐cell response was detected
C57BL/6 mice
  Antibody response: no detectable antibodies’ response
C57BL/6 mice; listed as XIP_WT
  Antibody response: ns
[2]; vs non-induced
  Serum IFN-γ (significance): ns
  Serum TNF-α (significance): ns
[2]; undetectable
  Serum IL-6: Below 0.82 pg/ml
HEK-293T cells [3]
  Effect on growth kinetics: ns and negligible effect
HEK-293T cells [4]
  Effect on constitutive SEAP production: ns and negligible effect
[5]; ComREXTRA-expressing HEK-293T, 50/200/500 µmol/L, 24 h, n = 4
  Cell viability under overstimulation: ns and no significant difference of cell viability
[5]; HEK-293T / HEK-XIP / mammalian cells, concentration range tested
  Cytotoxicity (result in words): no significant impact on cell viability
[5]; engineered HEK-293T, ComR operator variants, 150 and 500 µmol/L, n = 4
  Cell viability (significance): ns
[5]; seven cell lines expressing ComREXTRA-based system, 250 μM, n = 4
  Cell viability (significance): ns
[5]; seven cell lines with first system (HEK-293T, hMSC-TERT, HT-1080, HeLa, CHO-K1, BHK21, HepG2), 250 μM, n = 4
  Cell viability (significance): ns
[6]
  Membrane penetration: penetration ability across the mammalian cell membrane; also recorded: efficiently traverses the mammalian cell membrane
